Reference: US20230122393A1, “STEROIDAL NITRONE F2 FOR USE IN THE PREVENTION AND/OR TREATMENT OF PERMANENT CEREBRAL ISCHAEMIA” (ISQUAEMIA BIOTECH, S.L., priority 2020, published 2023)
“Also recorded” adds a separate entry of the source.

What was measured:
global cerebral ischemia [1] = assay: Y-maze spatial recognition or alternation test, long-term after global cerebral ischemia; details: i.v. at onset of reperfusion, before sacrifice at 11 weeks, vs healthy control
Method: (§1) In addition, animal behaviour was evaluated before sacrifice for the neurological evolution evaluation.
(§2) Animals were subjected to two behavioural tests for their neurological evaluation prior to sacrifice in order to assess the exploratory activity and spatial recognition and memory; the Y-maze paradigm was used to assess these functions. For the first test, the animal is positioned in the centre of the maze, allowing free exploration for 8 minutes. Exploratory activity is quantified and represented as an activity index. For the assessment of the spatial recognition and memory, the number of times the animals alternate among the three arms (triad number) is evaluated and quantified as an alternation index. Lower activity and/or alternation indexes are indications of reduced curiosity and spatial memory and consequently higher neurological deficit.

[2] = system: primary neuronal cultures subjected to oxygen and glucose deprivation; details: reference [17]; cited from earlier work
[3] = system: global cerebral ischemia, hippocampal CA1 and cortical regions; assay: Neuronal apoptosis by TUNEL assay, therapy window study in global cerebral ischemia; details: 5 d
Method: Animal model of global cerebral ischemia, experimental design and administration of nitrones. Transient forebrain ischemia was induced in adult male Wistar rats (10-12 weeks, Charles River) by the standard four-vessel occlusion model (4V0) previously described. Briefly, both vertebral arteries were irreversibly occluded by electrocoagulation under anaesthesia with a mixture of atropine, ketamine and diazepam (0.25, 62.5, and 5 mg/kg, respectively) administered by intraperitoneal injection. After 24 h, ischemia was induced by carotid occlusion with atraumatic clips for 15 min and then clips were removed from the carotid arteries to allow reperfusion. Body temperature of 37° C. was maintained. Animals were studied at 5 days after reperfusion (R5d). […] The treatments were performed with allocation concealment, assigning a random order to each vehicle or treated animal by a computer-generated randomization program. […] Vehicle-treated control animals were handled in the same way as treated animals. An independent investigator prepared the treatments for each animal according to the randomization schedule.
(§3) Brain sections. After 5 days after reperfusion, R5d animals were killed by transcardiac perfusion performed under deep anaesthesia. Perfusion via left ventricle was started with a washout of 200 mL of 0.9% NaCl, and the brains, following perfusion and fixation with 4% (w/v) paraformaldehyde solution in PBS, were removed and postfixed in the same solution overnight at 4° C. Brains were washed sequentially with 10, 20 and 30% (w/v) saccharose in PBS, embedded in Tissue-Tek O.C.T. (Sakura Finetek) and frozen at −80° C. prior to cryostat sectioning. Brain coronal sections containing the hippocampus were prepared at the level of interaural +5.7±0.2 mm on Real Capillary Gap microscope slides (Dako).
TUNEL assay. Apoptotic neurons within brain sections were detected using the Terminal deoxynucleotidyl transferase-mediated dUTP Nick-End Labeling (TUNEL) assay (Promega). For this test, 5-μm-thick coronal cryostat brain sections containing the dorsal hippocampal formation were obtained as described above and post-fixed with 4% formaldehyde in PBS for 5 min at room temperature. After washing in PBS for three times, sections were permeabilized with 0.1 M sodium citrate, pH 6.0, for 1 min at 95° C., quickly cooled in ice and washed in PBS for 5 min at room temperature. Then, brain sections were incubated with blocking solution (0.1 M Tris-HCl, pH 7.5, 3% bovine serum albumin and 20% fetal bovine serum), washed in PBS for 5 min, and post-fixed with 4% formaldehyde in PBS for 5 min. […]
The hippocampal CA1 subfield and cerebral and lateral cortex fields from a given section were analysed with fluorescence microscopy (40× objective) to count the number of apoptotic nuclei (green).

[4] = system: lipid peroxidation and ROS levels; details: preliminary results, reference [17]; cited from earlier work
[5] = system: transient forebrain ischemia (global cerebral ischemia); assay: Dose-response of neuroprotection (Fluoro-Jade B and TUNEL) in transitory global cerebral ischemia, four-vessel occlusion; details: for half effective concentration: i.v. at onset of reperfusion; for half effective concentration / maximal effect (percentage of neuroprotection): 5 days of reperfusion
Method: Animal model of global cerebral ischemia, experimental design and administration of nitrones. Transient forebrain ischemia was induced in adult male Wistar rats (10-12 weeks, Charles River) by the standard four-vessel occlusion model (4V0) previously described. Briefly, both vertebral arteries were irreversibly occluded by electrocoagulation under anaesthesia with a mixture of atropine, ketamine and diazepam (0.25, 62.5, and 5 mg/kg, respectively) administered by intraperitoneal injection. After 24 h, ischemia was induced by carotid occlusion with atraumatic clips for 15 min and then clips were removed from the carotid arteries to allow reperfusion. Body temperature of 37° C. was maintained. Animals were studied at 5 days after reperfusion (R5d). […] The treatments were performed with allocation concealment, assigning a random order to each vehicle or treated animal by a computer-generated randomization program. Ischemic animals were treated with nitrone F2 diluted in 10% ethanol in saline as vehicle by intravenous injection in the tail when the carotid arteries were unclamped for reperfusion. Vehicle-treated control animals were handled in the same way as treated animals. An independent investigator prepared the treatments for each animal according to the randomization schedule.
as §3
(§4) Neuronal death evaluation. Neuronal death was evaluated by Fluoro-Jade-B staining. Brain cryosections (10 μm thick) from ischemic animals that underwent reperfusion for 5 days were used after fixation to detect neuronal death by Fluoro-Jade-B staining (Ayuso et al. 2015 J. Med. Chem. 58, 6704-6709; 10.1021/acs.jmedchem.5b00755) and visualized by fluorescence microscopy. Labelled (dead) neuronal cells (in green) were counted as in TUNEL assay (see below). Data from different animals of each experimental group were independently analysed by two observers, and treatment information was blindly performed throughout the study.
TUNEL assay. Apoptotic neurons within brain sections were detected using the Terminal deoxynucleotidyl transferase-mediated dUTP Nick-End Labeling (TUNEL) assay (Promega). For this test, 5-μm-thick coronal cryostat brain sections containing the dorsal hippocampal formation were obtained as described above and post-fixed with 4% formaldehyde in PBS for 5 min at room temperature. After washing in PBS for three times, sections were permeabilized with 0.1 M sodium citrate, pH 6.0, for 1 min at 95° C., quickly cooled in ice and washed in PBS for 5 min at room temperature. Then, brain sections were incubated with blocking solution (0.1 M Tris-HCl, pH 7.5, 3% bovine serum albumin and 20% fetal bovine serum), washed in PBS for 5 min, and post-fixed with 4% formaldehyde in PBS for 5 min.

[6] = system: transient focal cerebral ischemia (tMCAO); assay: Infarct volume by TTC staining after tMCAO; type: in vivo, mice; details: 48 h; for infarct volume (as percentages): VEH 19.15±1.08
[7] = system: global cerebral ischemia, hippocampal CA1 and cortical regions; assay: Neuronal death by Fluoro-Jade B staining, therapy window study in global cerebral ischemia; details: 5 d
Method: Animal model of global cerebral ischemia, experimental design and administration of nitrones. Transient forebrain ischemia was induced in adult male Wistar rats (10-12 weeks, Charles River) by the standard four-vessel occlusion model (4V0) previously described. Briefly, both vertebral arteries were irreversibly occluded by electrocoagulation under anaesthesia with a mixture of atropine, ketamine and diazepam (0.25, 62.5, and 5 mg/kg, respectively) administered by intraperitoneal injection. After 24 h, ischemia was induced by carotid occlusion with atraumatic clips for 15 min and then clips were removed from the carotid arteries to allow reperfusion. Body temperature of 37° C. was maintained. Animals were studied at 5 days after reperfusion (R5d). […] Ischemic animals were treated with nitrone F2 diluted in 10% ethanol in saline as vehicle by intravenous injection in the tail when the carotid arteries were unclamped for reperfusion. Vehicle-treated control animals were handled in the same way as treated animals.
After 5 days after reperfusion, R5d animals were killed by transcardiac perfusion performed under deep anaesthesia. Perfusion via left ventricle was started with a washout of 200 mL of 0.9% NaCl, and the brains, following perfusion and fixation with 4% (w/v) paraformaldehyde solution in PBS, were removed and postfixed in the same solution overnight at 4° C. Brains were washed sequentially with 10, 20 and 30% (w/v) saccharose in PBS, embedded in Tissue-Tek O.C.T. (Sakura Finetek) and frozen at −80° C. prior to cryostat sectioning. Brain coronal sections containing the hippocampus were prepared at the level of interaural +5.7±0.2 mm on Real Capillary Gap microscope slides (Dako).
as §4
Analysis of results included neuronal damage and death, and a functional test to which the animals were subjected prior to sacrifice. All the results were obtained 5d after post-ischemic reperfusion in a model of global cerebral ischemia.

[8] = system: permanent focal cerebral ischemia (pMCAO); assay: Infarct area/volume by TTC staining after permanent MCA occlusion (pMCAO); type: in vivo, mice; details: F2 0.1 mg/kg i.p. at 2 and 12 hours after MCA occlusion
global cerebral ischemia [9] = assay: Y-maze exploration activity test, long-term after global cerebral ischemia; details: i.v. at onset of reperfusion, before sacrifice at 11 weeks, vs healthy control
Method: as §1, §2

[10] = system: global cerebral ischemia, hippocampal CA1 region; assay: Long-term viable neurons (S6-positive cells) in hippocampal CA1 11 weeks after global cerebral ischemia; details: i.v. at onset of reperfusion; 11 weeks (77 days) after reperfusion
Method: Animal model of global cerebral ischemia, experimental design and administration of nitrones. Transient forebrain ischemia was induced in adult male Wistar rats (10-12 weeks, Charles River) by the standard four-vessel occlusion model (4V0) previously described. Briefly, both vertebral arteries were irreversibly occluded by electrocoagulation under anaesthesia with a mixture of atropine, ketamine and diazepam (0.25, 62.5, and 5 mg/kg, respectively) administered by intraperitoneal injection. After 24 h, ischemia was induced by carotid occlusion with atraumatic clips for 15 min and then clips were removed from the carotid arteries to allow reperfusion. Body temperature of 37° C. was maintained. Animals were studied at 5 days after reperfusion (R5d). A power analysis was performed (http://www.biomath.info/power/ttest.htm) to determine the sample size. The level of statistical significance was fixed at 0.05, the power set at 0.8 (80%), and the sample size obtained was <6 subjects per group. The treatments were performed with allocation concealment, assigning a random order to each vehicle or treated animal by a computer-generated randomization program. […]
Because of this, a new experimental strategy had to be used, based on the staining of viable neurons and its quantification in the areas of the brain more vulnerable to the ischemic episodes such as the hippocampal CA1 region. […]

global cerebral ischemia [11] = assay: Therapeutic window of the neuroprotective effect in global cerebral ischemia; type: in vivo, rat
SOD1 = SOD1 protein levels by western blot in primary neuronal cultures subjected to OGD and recovery
Method: Primary Neuronal Cultures. […] Cell suspensions from cerebral cortex were prepared from 16- to 17-day-old Sprague-Dawley rat embryos. Living cells in cell suspension were counted by trypan blue exclusion method. Cells were seeded on plastic multidishes precoated with 0.05 mg/mL poly-D-lysine at a density of 2.5×10^5 cells/cm2 and were kept at 37° C. in a 6.5% CO2 atmosphere in high glucose Dulbecco's medium supplemented with 15% heat-inactivated (56° C. for 30 min) foetal calf serum. […]
Exposure of Cell Cultures to Oxygen—Glucose Deprivation. […] F2 were analysed independently from 4 to 8 times with different batches of cultures, and each experiment was run in quadruplicate.
35-50 μg of protein cell extracts was resolved in 10 or 12% SDS-PAGE and blotted into a polyvinylidene difluoride (PVDF) membrane (GE Healthcare). […] Then, membranes were incubated with horseradish peroxidase-conjugated secondary antibodies for 1 h, developed with the ECL-Clarity (Bio-Rad) or Prime systems (GE Healthcare) and detected in a ChemiDoc imager (Bio-Rad).
The images were quantified using the quantification software ImageLab and Quantity One (Bio-Rad Laboratories). The protein levels were expressed as intensities in arbitrary units (AU).

global cerebral ischemia [12] = assay: Neurological deficit score (NDS), therapy window study in global cerebral ischemia; details: 5 d
Method: Animal model of global cerebral ischemia, experimental design and administration of nitrones. Transient forebrain ischemia was induced in adult male Wistar rats (10-12 weeks, Charles River) by the standard four-vessel occlusion model (4V0) previously described. Briefly, both vertebral arteries were irreversibly occluded by electrocoagulation under anaesthesia with a mixture of atropine, ketamine and diazepam (0.25, 62.5, and 5 mg/kg, respectively) administered by intraperitoneal injection. After 24 h, ischemia was induced by carotid occlusion with atraumatic clips for 15 min and then clips were removed from the carotid arteries to allow reperfusion. Body temperature of 37° C. was maintained. Animals were studied at 5 days after reperfusion (R5d). […] Vehicle-treated control animals were handled in the same way as treated animals.
Evaluation of neurological deficits. Neurological deficits in rats subjected to global cerebral ischemia were blindly evaluated using a scale previously described (Ayuso et al. 2015 J. Med. Chem. 58, 6704-6709; 10.1021/acs.jmedchem.5b00755). […]
Animals were subjected to a functional test before sacrifice in order to quantify their potential disability. […]
The variables quantified to evaluate de neuroprotection of NXY-059, including neurological deficit score (NDS) and neuronal death and apoptosis in brain sections, were performed as described in Example 3. […]

[13] = system: transient focal cerebral ischemia (tMCAO); assay: Grip strength test after transient middle cerebral artery occlusion (tMCAO); details: for grip strength: 24 hours after reperfusion, VEH 91.76±2.00
Method: Transient occlusion of a distal branch of the middle cerebral artery (tMCAO) was induced in male C57BL/6 mice (9-12-week-old, Charles River). […] Briefly, mice were anesthetized with 4% isoflurane for induction and 1.5-2% isoflurane for maintenance (in 79% N2/21% 02). After drilling a small hole on the temporal bone, the middle cerebral artery (MCA) was compressed for 60 min with a 30-G needle using a micromanipulator. During the surgery, body temperature was maintained at 37.0±0.5° C. using a homoeothermic blanket and CBF was monitored using laser-Doppler flowmetry to confirm MCA occlusion. Buprenorphine (0.05-0.1 mg/kg) was administered subcutaneously immediately before the procedure. […] Surgical inclusion criteria: a reduction in blood flow to <25% of baseline value during ischemia period, and a recovery of 75% of baseline value in the reperfusion period. […] The treatments were administered intraperitoneally at the onset of reperfusion period by an investigator blinded to the experimental condition.
Motor functional test was performed at 1 day before surgery and 24 h and 48 h after tMCAO to evaluate ischemic outcomes and monitor motor function by a blinded researcher to experimental conditions. […] A total of 6 trials were conducted for each test and the strength value was calculated as the mean of them.

[14] = system: permanent focal cerebral ischemia (pMCAO); assay: Somatosensory evoked potentials after permanent MCA occlusion (pMCAO); details: F2 0.1 mg/kg i.p. at 2 and 12 h; 72 hours post-stroke and during total time of study (3 weeks)
Method: Evaluation of functional brain territory in stroke mice with pMCAO and treated with F2. (A) Representative somatosensory evoked contralateral potentials recorded before and 72 hours post-stroke in treated (F2) and non-treated (vehicle, control) mice. F2 was administered at 2 and 12 hours after MCA ligation. […] In both groups, the electrical stimulus was twice the current level necessary to obtain a supramaximal motor response, typically 1-2 mA. (B) Amplitude of evoked activity in the somatosensory cortex (forepaw sensory field) in the infarcted (left panel) and non-infarcted (right panel) hemispheres of non-treated (vehicle) and treated (F2) mice over time after stroke. […] Data are presented as the means ±SEM. For every time point analysed, the black asterisks denote significant differences between non-treated (vehicle) and treated (F2) mice (two-way ANOVA followed by Tukey's test; *p<0.05, **p<0.05).
Ipsilateral activity in stroke mice with pMCAO and treated with F2. […] (C) Amplitude of somatosensory evoked activity (forepaw sensory field) in the non-damaged hemisphere of non-treated (vehicle) and treated (F2) mice over time after stroke and F2 or vehicle administration.
Here, the neuroprotective efficacy of this nitrone has been assayed in a model of permanent focal cerebral ischemia in mice. […]

global cerebral ischemia [15] = details: intraperitoneal at onset of reperfusion; reference [17]; cited from earlier work
[16] = F2 0.05 mg/kg i.v. 48 h after reperfusion

Question: Which results are given for CC(C)CCC[C@@H](C)[C@H]1CC[C@H]2[C@@H]3CCC4=C/C(=[N+](\C)[O-])CC[C@]4(C)[C@H]3CC[C@]12C [F2, (E)-N-((8S,9S,10R,13R,14S,17R)-10,13-dimethyl-17-((R)-6-methylheptan-2-yl)-7,8,9,11,12,13,14,15,16,17-decahydro-1H-cyclopenta[a]phenanthren-3(2H,6H,10H)-ylidene)methanamine oxide]?
Answer: alternation index (spatial recognition test, Y-maze) (global cerebral ischemia [1]): no significant differences when compared to the scores of the control group; neuroprotective effect (cell viability) after OGD [2]: good neuroprotective effect in the micromolar range; neuronal apoptosis (TUNEL) vs vehicle ([3]; F2 0.05 mg/kg i.v. at 6 h after reperfusion): significant in both hippocampus and cerebral cortex; neuronal apoptosis (TUNEL) vs vehicle ([3]; F2 0.05 mg/kg i.v. at 48 h after reperfusion): did not afford a significant decrease in the apoptosis; neuronal apoptosis (TUNEL) vs vehicle ([3]; F2 0.05 mg/kg i.v., maximum effect at 0-3 hours after onset of reperfusion): significant reduction of apoptosis; lipid peroxidation and ROS levels [4]: both decreased; half effective concentration ([5]; cerebral cortex): 0.015 mg/kg; maximal effect (percentage of neuroprotection) ([5]; cerebral cortex, reached at 0.05 mg/kg i.v. at onset of reperfusion): 81%; most effective dose in decreasing neuronal death and apoptosis ([5]; doses 0.01-0.1 mg/kg i.v., 5 days after reperfusion): 0.05 mg/kg; maximal effect (percentage of neuroprotection) ([5]; hippocampal region CA1, at 0.05 mg/kg i.v. at onset of reperfusion): 35%; half effective concentration ([5]; hippocampal region CA1): 0.025 mg/kg; decrease of infarct volume respect to NXY059 ([6]; 0.1 mg/kg F2, p<0.05): 20.27%; decrease of infarct volume respect to control VEH ([6]; 0.1 mg/kg F2, p<0.05): 15.20%; infarct volume (as percentages) ([6]; F2 0.1 mg/kg i.p. at onset of reperfusion): 16.24±0.85%; neuronal death (Fluoro-Jade B) vs vehicle [7, 16]: did not afford a significant decrease in the neuronal damage; neuronal death (Fluoro-Jade B) vs vehicle ([7]; F2 0.05 mg/kg i.v. between 0 and 6 h after reperfusion, CA1 and cortex): significantly decreased neuronal death; infarct volume vs vehicle [8]: significantly reduces infarct volume; infarcted area (TTC staining) vs non-treated ([8]; 48 hours): lower infarcted area; activity index (exploration activity test, Y-maze) (global cerebral ischemia [9]): activity scores that were equivalent to those observed in the control group; viable neurons (S6-positive cells) in hippocampal CA1 [10]: significantly preserves neuronal viability; administration time of maximum neuroprotective effect after reperfusion onset (global cerebral ischemia [11]; F2 0.05 mg/kg i.v.): 0 to 3 h; therapeutic window of neuroprotective effect, time after onset of reperfusion (global cerebral ischemia [11]; F2 0.05 mg/kg i.v.): ≤ 6 h; SOD1 levels (SOD1; 5 μM F2, 2 h after OGD, vs untreated and control groups): significant increase of SOD1 levels; enhancement of the SOD1 increase caused by OGD alone (SOD1; 5 μM F2, 24 h after OGD): 15%; neurological deficit score (NDS) vs vehicle (global cerebral ischemia [12]; [16]): did not improve the NDS; grip strength ([13]; 0.05 mg/kg F2 i.p. at onset of reperfusion): 110.2±5.14 grams; grip strength ([13]; 0.1 mg/kg F2 i.p. at onset of reperfusion): 113.2±5.35 grams; grip strength values vs vehicle ([13]; F2 0.05 or 0.1 mg/kg at onset of reperfusion, 24 h and 48 h after reperfusion): improved grip strength values; somatosensory evoked cortical response, damaged hemisphere (right) [14]: preserved cortical response; neuronal death and apoptosis in hippocampus and cortex (global cerebral ischemia [15]): decreased neuronal death and apoptosis

Question: Which results are given for CC(C)(C)[N+]([O-])=Cc1ccc(S(=O)(=O)[O-])cc1S(=O)(=O)[O-].[Na+].[Na+] [NXY-059, reference compound]?
Answer: alternation index (spatial recognition test, Y-maze) (global cerebral ischemia [1]): no significant differences when compared to the scores of the control group; neuronal apoptosis (TUNEL) vs vehicle ([3]; NXY-059 40 mg/kg i.v. between 0 and 48 h after reperfusion): did not afford a significant decrease in the neuronal apoptosis; infarct volume (as percentages) ([6]; NXY-059 40.0 mg/kg i.p. at onset of reperfusion): 20.37±0.93%; neuronal death (Fluoro-Jade B) ([7]; NXY-059 40 mg/kg i.v. 1-48 h after reperfusion): did not induce a decrease in neuronal damage; neuronal death (Fluoro-Jade B) ([7]; NXY-059 40 mg/kg i.v. at reperfusion onset (0 h), 40 mg/kg): lower neuroprotective effect; also recorded: only induced a significant decrease of neuronal damage administered at the onset of the reperfusion; activity index (exploration activity test, Y-maze) (global cerebral ischemia [9]): neurological deficit was similar to the one obtained for VEH; viable neurons (S6-positive cells) in hippocampal CA1 [10]: did not recover the damage observed; therapeutic window (global cerebral ischemia [11]; NXY-059 40 mg/kg i.v., compared to F2): narrow therapeutic window compared to F2; neurological deficit score (NDS) vs vehicle (global cerebral ischemia [12]; NXY-059 40 mg/kg i.v. 0-48 h after reperfusion): did not improve the NDS
